Data reported in article PMC10614160 (Journal of medicinal chemistry, 2023).

System: OVSAHO cells
Test: cell viability of OVSAHO cells
Type: cell-based
Details: for effect of combining the drug with 1 on inhibiting OVSAHO cells: compared with 1 alone; for 24 h cytotoxicity against OVSAHO: drug alone

Row | Compound | effect of combining the drug with 1 on inhibiting OVSAHO cells (combined with 1 (20 μM), 24 h) | other results
1 | CC(C)(C)c1ccc(S(=O)(=O)/C=C/C#N)cc1 [BAY11–7085] | slightly enhances | –
2 | CC(C)C[C@H](NC(=O)[C@H](Cc1ccccc1)NC(=O)c1cnccn1)B(O)O [BTZ, bortezomib] | No inhibition enhancement | –
3 | COC(=O)[C@@]1(O)C[C@H]2O[C@]1(C)n1c3ccccc3c3c4c(c5c6ccccc6n2c5c31)C(=O)NC4 [K252A] | slightly enhances | –
4 | O=C(C1CC1)N1CCN(Cn2sc3ccccc3c2=O)CC1 [LOC14] | No inhibition enhancement | –
5 | N.N.[Cl][Pt][Cl] [cisplatin] | slightly enhances | –
6 | COc1cccc2c1C(=O)c1c(O)c3c(c(O)c1C2=O)C[C@@](O)(C(=O)CO)C[C@@H]3O[C@H]1C[C@H](N)[C@H](O)[C@H](C)O1 [doxorubicin] | – | cell viability of OVSAHO treated with 1 combined with the drug (combined with 1 (20 μM), 24 h): ~20%; 24 h cytotoxicity against OVSAHO (1.25 μM): around 75%; 24 h cytotoxicity against OVSAHO (2.5 μM): around 75%; 24 h cytotoxicity against OVSAHO (5 μM): around 75%
7 | CC(=O)O[C@H]1C(=O)[C@@]2(C)[C@H]([C@H](OC(=O)c3ccccc3)[C@]3(O)C[C@H](OC(=O)[C@H](O)[C@@H](NC(=O)c4ccccc4)c4ccccc4)C(C)=C1C3(C)C)[C@]1(OC(C)=O)CO[C@@H]1C[C@@H]2O [paclitaxel] | No inhibition enhancement | –
8 | Cn1ncnc1[C@H]1c2n[nH]c(=O)c3cc(F)cc(c23)N[C@@H]1c1ccc(F)cc1 [talazoparib] | No inhibition enhancement | –
9 | PACMA31 | No inhibition enhancement | –
